Test results published in patent US12371454B2, “Cyclic peptide compound having Kras inhibitory action” (priority 2019, dated 2025).
Starred links: 1 amine or outer side, 2 acyl side, 3 side chain; linkers in the order of their positions; H or OH if unused. Positions of bridges follow the written chain, without caps; N, C: chain ends. Non-standard residues stand in square brackets, D forms with d. Residues, ends and D or L forms follow the SMILES beside them. *: point of attachment. hPhe(3-Cl-4-CF3) = N[C@@H](CCc1ccc(C(F)(F)F)c(Cl)c1)C(=O)O; NMePhe(4-CF3) = CN[C@@H](Cc1ccc(C(F)(F)F)cc1)C(=O)O; X25 = CN([C@@H](Cc1ccc(C(F)F)cc1)C(=O)[*:2])[*:1]; NMeAla(4-thiazolyl) = CN[C@@H](Cc1cscn1)C(=O)O; 3Oxa8azabicyclo(3.2.1)octane = C1CC2COCC1N2*; NMePhe(4-Me) = CN[C@@H](Cc1ccc(C)cc1)C(=O)O; NMePhe(2-Cl) = CN[C@@H](Cc1ccccc1Cl)C(=O)O; NMePhe(4-F) = CN[C@@H](Cc1ccc(F)cc1)C(=O)O; NMedβ3hAla = C[C@H](CC(=O)[*:2])N(C)[*:1]; NMeAla(cPent) = CN[C@@H](CC1CCCC1)C(=O)O; NMeGly(cPent) = CN[C@H](C(=O)O)C1CCCC1; NMeY = CN[C@@H](Cc1ccc(O)cc1)C(=O)O; NMeCha = CN[C@@H](CC1CCCCC1)C(=O)O; NMeChg = CN[C@H](C(=O)O)C1CCCCC1; NMeI = CC[C@H](C)[C@H](NC)C(=O)O; NMeT = CN[C@H](C(=O)O)[C@@H](C)O; NMeD = CN[C@@H](CC(=O)O)C(=O)O; NMeL = CN[C@@H](CC(C)C)C(=O)O; NMeV = CN[C@H](C(=O)O)C(C)C; NMeAbu = CC[C@H](NC)C(=O)O; NMeA = CN[C@@H](C)C(=O)O; Piperidide = C1CCN(*)CC1; Ac5c = NC1(C(=O)O)CCCC1; Aze = O=C(O)[C@@H]1CCN1; Sar = CNCC(=O)O

Legend:
[1] = biological target: T1, Kras and SOS1 (biotin-tagged human Kras loaded with GDP, His-tagged human SOS1) (Homo sapiens, UniProt P01116, G12D); experiment: Protein-protein interaction inhibition between Kras and SOS1 (KrasGl2D-SOS PPI) using AlphaScreen; type: binding; settings: AlphaScreen; biotin-tagged human Kras loaded with GDP, His-tagged human SOS1; read-out: KRAS G12D-SOS PPI IC50
T1 construct: made in house; host or cells: E. coli (stated for Kras only)
T1 sequence (P01116 1-188 isoform P01116-2 G12D): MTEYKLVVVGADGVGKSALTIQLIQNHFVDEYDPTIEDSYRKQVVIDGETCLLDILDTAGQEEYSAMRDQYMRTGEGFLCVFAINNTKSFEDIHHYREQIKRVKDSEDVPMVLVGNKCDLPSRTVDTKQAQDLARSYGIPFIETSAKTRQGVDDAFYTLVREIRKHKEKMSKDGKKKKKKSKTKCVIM
Outline: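 Donor beads (nickel) hold His-SOS1; acceptor beads (streptavidin) hold biotin-Kras bound to GDP. Signal measured at 520-620 nm following 680 nm excitation.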

[2] = system: Human pancreatic cancer cell line AsPC-1; experiment: Measurement of AsPC-1 cell growth inhibition (AsPC-1 CGI); type: cell-based; settings: 96 h
Outline: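 AsPC-1 cells in 15% FBS RPMI-1640 were exposed to test compound for 96 hours at 37° C, with CellTiter-Glo as endpoint.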

Row | SMILES | IC50 [1] | IC50 [2]
1 | CC[C@H](C)[C@@H]1NC(=O)[C@H](CC(C)C)N(C)C(=O)C[C@@H](C(=O)N2CCCCC2)N(C)C(=O)[C@H](C2CCCCC2)N(C)C(=O)C2(CCCC2)NC(=O)[C@@H]2CCCN2C(=O)[C@H](CCc2ccc(C(F)(F)F)c(Cl)c2)NC(=O)CN(C)C(=O)[C@H]([C@@H](C)OC)N(C)C(=O)CN(C)C(=O)CN(C)C1=O [Compound 1072] ([NMeL]I[Sar][Sar][NMeT](Me)[Sar][hPhe(3-Cl-4-CF3)]P[Ac5c][NMeChg][NMeD]-Piperidide; lactam N-11) | 1.2 nM | 100 to 500 nM
2 | CC[C@H](C)[C@@H]1NC(=O)[C@H](CC(C)C)N(C)C(=O)C[C@@H](C(=O)N2CCCCC2)N(C)C(=O)[C@H](C(C)C)N(C)C(=O)C2(CCCC2)NC(=O)[C@@H]2CCCN2C(=O)[C@H](CCc2ccc(C(F)(F)F)c(Cl)c2)NC(=O)CN(C)C(=O)[C@H](CC2CCCC2)N(C)C(=O)[C@@H]2CCN2C(=O)[C@H](C)N(C)C1=O [Compound 1739] ([NMeL]I[NMeA][Aze][NMeAla(cPent)][Sar][hPhe(3-Cl-4-CF3)]P[Ac5c][NMeV][NMeD]-Piperidide; lactam N-11) | 4.7 nM | 100 to 500 nM
3 | CC[C@H](C)[C@@H]1NC(=O)[C@H](CC)N(C)C(=O)C[C@@H](C(=O)N2C3CCC2COC3)N(C)C(=O)[C@H](C2CCCCC2)N(C)C(=O)C2(CCCC2)NC(=O)[C@@H]2CCCN2C(=O)[C@H](CCc2ccc(C(F)(F)F)c(Cl)c2)NC(=O)CN(C)C(=O)[C@H](Cc2ccc(C(F)(F)F)cc2)N(C)C(=O)CN(C)C(=O)CN(C)C1=O [Compound 1993] ([NMeAbu]I[Sar][Sar][NMePhe(4-CF3)][Sar][hPhe(3-Cl-4-CF3)]P[Ac5c][NMeChg][NMeD]-{3Oxa8azabicyclo(3.2.1)octane}; lactam N-11) | 0.64 nM | 50 to 100 nM
4 | CC[C@H](C)[C@@H]1NC(=O)[C@H](CC(C)C)N(C)C(=O)C[C@@H](C(=O)N2CCCCC2)N(C)C(=O)[C@H](C(C)C)N(C)C(=O)C2(CCCC2)NC(=O)[C@@H]2CCCN2C(=O)[C@H](CCc2ccc(C(F)(F)F)c(Cl)c2)NC(=O)CN(C)C(=O)[C@H](Cc2ccc(OC)cc2)N(C)C(=O)CN(C)C(=O)CN(C)C1=O [Compound 1588] ([NMeL]I[Sar][Sar][NMeY](Me)[Sar][hPhe(3-Cl-4-CF3)]P[Ac5c][NMeV][NMeD]-Piperidide; lactam N-11) | 4.1 nM | 100 to 500 nM
5 | CC[C@H](C)[C@@H]1NC(=O)[C@H](CC(C)C)N(C)C(=O)C[C@@H](C(=O)N(C)C)N(C)C(=O)[C@H]([C@@H](C)CC)N(C)C(=O)C2(CCCC2)NC(=O)[C@H](Cc2ccccc2Cl)N(C)C(=O)[C@H](CCc2ccc(C(F)(F)F)c(Cl)c2)NC(=O)CN(C)C(=O)[C@H](Cc2ccc(C)cc2)N(C)C(=O)[C@@H]2CCN2C(=O)[C@H](C)N(C)C1=O [Compound 216] ([NMeL]I[NMeA][Aze][NMePhe(4-Me)][Sar][hPhe(3-Cl-4-CF3)][NMePhe(2-Cl)][Ac5c][NMeI][NMeD]-NMe2; lactam N-11) | 8 nM | 100 to 500 nM
6 | CC[C@H](C)[C@@H]1NC(=O)[C@H](CC(C)C)N(C)C(=O)C[C@@H](C(=O)N(C)C)N(C)C(=O)[C@H]([C@@H](C)CC)N(C)C(=O)C2(CCCC2)NC(=O)[C@H](Cc2ccc(C(F)F)cc2)N(C)C(=O)[C@H](CCc2ccc(C(F)(F)F)c(Cl)c2)NC(=O)CN(C)C(=O)[C@H](Cc2ccc(C)cc2)N(C)C(=O)[C@@H]2CCN2C(=O)[C@H](C)N(C)C1=O [Compound 1930] ([NMeL]I[NMeA][Aze][NMePhe(4-Me)][Sar][hPhe(3-Cl-4-CF3)][X25][Ac5c][NMeI][NMeD]-NMe2; lactam N-11) | 3.6 nM | 20 to 50 nM
7 | CC[C@H](C)[C@@H]1NC(=O)[C@H](CC(C)C)N(C)C(=O)C[C@@H](C)N(C)C(=O)[C@H](C(C)C)N(C)C(=O)C2(CCCC2)NC(=O)[C@@H]2CCCN2C(=O)[C@H](CCc2ccc(C(F)(F)F)c(Cl)c2)NC(=O)CN(C)C(=O)[C@H](Cc2ccc(F)cc2)N(C)C(=O)CN(C)C(=O)CN(C)C1=O [Compound 1571] (cyclo([Ac5c][NMeV][NMedβ3hAla][NMeL]I[Sar][Sar][NMePhe(4-F)][Sar][hPhe(3-Cl-4-CF3)]P)) | 4.8 nM | 50 to 100 nM
8 | CC[C@H](C)[C@@H]1NC(=O)[C@H](CC(C)C)N(C)C(=O)C[C@@H](C(=O)N(C)C)N(C)C(=O)[C@H](C2CCCC2)N(C)C(=O)C2(CCCC2)NC(=O)[C@H](Cc2cscn2)N(C)C(=O)[C@H](CCc2ccc(C(F)(F)F)c(Cl)c2)NC(=O)CN(C)C(=O)[C@H](CC2CCCCC2)N(C)C(=O)[C@@H]2CCN2C(=O)[C@H](C)N(C)C1=O [Compound 384] ([NMeL]I[NMeA][Aze][NMeCha][Sar][hPhe(3-Cl-4-CF3)][NMeAla(4-thiazolyl)][Ac5c][NMeGly(cPent)][NMeD]-NMe2; lactam N-11) | 1 nM | 100 to 500 nM
